# Reference: ChEMBL document CHEMBL4402561, “Discovery of Potent Dual-Tailed Benzenesulfonamide Inhibitors of Human Carbonic Anhydrases Implicated in Glaucoma and in Vivo Profiling of Their Intraocular Pressure-Lowering Action” (J Med Chem, 2020)
# pKi: −log10 of the molar value.
# What was measured:
# Carbonic anhydrase 4 = Carbonic anhydrase 4 (Homo sapiens, UniProt P22748)
# Description: Inhibition of recombinant human carbonic anhydrase 4 incubated for 6 hrs prior to testing measured for 10 to 100 secs by phenol red-based stopped-flow CO2 hydration assay
# Carbonic anhydrase 2 = Carbonic anhydrase 2 (Homo sapiens, UniProt P00918)
# Description: Inhibition of recombinant human carbonic anhydrase 2 incubated for 6 hrs prior to testing measured for 10 to 100 secs by phenol red-based stopped-flow CO2 hydration assay
# Carbonic anhydrase 7 = Carbonic anhydrase 7 (Homo sapiens, UniProt P43166)
# Description: Inhibition of recombinant human carbonic anhydrase 7 incubated for 6 hrs prior to testing measured for 10 to 100 secs by phenol red-based stopped-flow CO2 hydration assay
# Carbonic anhydrase 1 = Carbonic anhydrase 1 (Homo sapiens, UniProt P00915)
# Description: Inhibition of recombinant human carbonic anhydrase 1 incubated for 6 hrs prior to testing measured for 10 to 100 secs by phenol red-based stopped-flow CO2 hydration assay
# Oryctolagus cuniculus = experiment: Antiglaucoma activity in hypertonic saline solution-induced New Zealand albino rabbit model of ocular hypertension assessed as reduction in intraocular pressure at 1% administered topically to eye measured after 240 mins by pneumotonometric- method; assay type: functional
# Chain of Carbonic anhydrase 7 (P43166 whole entry): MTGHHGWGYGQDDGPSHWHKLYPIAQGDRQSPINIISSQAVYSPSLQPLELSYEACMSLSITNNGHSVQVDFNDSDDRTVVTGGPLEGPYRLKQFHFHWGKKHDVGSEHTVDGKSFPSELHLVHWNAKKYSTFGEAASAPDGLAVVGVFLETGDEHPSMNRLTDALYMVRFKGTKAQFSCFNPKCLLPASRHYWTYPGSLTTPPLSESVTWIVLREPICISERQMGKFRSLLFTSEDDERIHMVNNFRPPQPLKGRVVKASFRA
# Chain of Carbonic anhydrase 1 (P00915 whole entry): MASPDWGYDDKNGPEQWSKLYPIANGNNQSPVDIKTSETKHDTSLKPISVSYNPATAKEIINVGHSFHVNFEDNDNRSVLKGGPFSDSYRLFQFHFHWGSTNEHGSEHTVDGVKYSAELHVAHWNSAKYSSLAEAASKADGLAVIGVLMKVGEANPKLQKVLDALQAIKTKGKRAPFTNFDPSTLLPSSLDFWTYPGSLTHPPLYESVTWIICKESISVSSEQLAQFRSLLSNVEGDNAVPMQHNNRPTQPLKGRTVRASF
# Chain of Carbonic anhydrase 4 (P22748 whole entry): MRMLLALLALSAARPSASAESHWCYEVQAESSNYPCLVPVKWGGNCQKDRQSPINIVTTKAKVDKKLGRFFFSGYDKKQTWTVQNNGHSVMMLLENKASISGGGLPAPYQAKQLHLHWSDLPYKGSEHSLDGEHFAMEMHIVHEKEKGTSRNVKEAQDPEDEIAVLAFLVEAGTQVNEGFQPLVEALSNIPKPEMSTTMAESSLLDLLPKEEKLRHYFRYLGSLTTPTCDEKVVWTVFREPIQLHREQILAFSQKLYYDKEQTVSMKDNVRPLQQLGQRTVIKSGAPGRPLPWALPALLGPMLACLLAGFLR
Compound,pKi (Carbonic anhydrase 4),pKi (Carbonic anhydrase 2),pKi (Carbonic anhydrase 7),pKi (Carbonic anhydrase 1),Activity (Oryctolagus cuniculus)
COc1ccc(N/N=C(\C(C)=O)C(=O)Nc2ccc(S(N)(=O)=O)cc2)cc1,< 5.00,6.56,5.44,6.15,
CC(=O)/C(=C\c1ccccc1)C(=O)Nc1ccc(S(N)(=O)=O)cc1,6.02,8.36,7.35,7.16,
CC(=O)/C(=N\Nc1cccc([N+](=O)[O-])c1)C(=O)Nc1ccc(S(N)(=O)=O)cc1,< 5.00,7.15,6.10,6.12,
COc1ccc(N/N=C(\Cl)C(=O)Nc2ccc(S(N)(=O)=O)cc2)cc1,5.19,7.68,7.26,7.06,
NS(=O)(=O)c1ccc(NC(=O)/C(Cl)=N/Nc2ccccc2)cc1,5.13,7.39,7.17,6.64,
CC(=O)/C(=N\Nc1ccc(Br)cc1)C(=O)Nc1ccc(S(N)(=O)=O)cc1,< 5.00,6.43,< 5.00,< 5.00,
CC(=O)/C(=N\Nc1ccc(Cl)cc1)C(=O)Nc1ccc(S(N)(=O)=O)cc1,< 5.00,8.28,5.77,5.58,
NS(=O)(=O)c1ccc(NC(=O)/C(Cl)=N/Nc2ccc(F)cc2)cc1,5.13,7.46,7.33,6.53,
NS(=O)(=O)c1ccc(NC(=O)/C(Cl)=N/Nc2ccc(Br)cc2)cc1,< 5.00,6.58,5.99,6.03,
CC(=O)/C(=N\Nc1ccccc1)C(=O)Nc1ccc(S(N)(=O)=O)cc1,< 5.00,8.37,6.19,7.09,
CC(=O)/C(=N\Nc1ccc(C#N)cc1)C(=O)Nc1ccc(S(N)(=O)=O)cc1,< 5.00,7.28,6.12,6.29,
NS(=O)(=O)c1ccc(NC(=O)/C(Cl)=N/Nc2ccc(Cl)cc2)cc1,6.04,8.52,8.21,7.36,
CC(=O)/C(=N\Nc1ccc(F)cc1)C(=O)Nc1ccc(S(N)(=O)=O)cc1,< 5.00,8.09,5.48,5.57,
COc1ccc(N/N=C(\C(C)=O)C(=O)Nc2ccc(S(N)(=O)=O)cc2)cc1OC,5.83,8.30,8.36,7.23,

# More lines, in order of rising pKi (Carbonic anhydrase 4), values ahead:
pKi (Carbonic anhydrase 4),pKi (Carbonic anhydrase 2),pKi (Carbonic anhydrase 7),pKi (Carbonic anhydrase 1),Compound,Activity (Oryctolagus cuniculus)
6.05,7.40,6.56,7.16,CC(=O)CC(=O)Nc1ccc(S(N)(=O)=O)cc1,
6.09,8.54,8.28,7.31,CC(=O)/C(=C\c1cccs1)C(=O)Nc1ccc(S(N)(=O)=O)cc1,
6.22,9.35,8.51,7.82,COc1ccc(/C=C(\C(C)=O)C(=O)Nc2ccc(S(N)(=O)=O)cc2)cc1,1.5 mmHg
6.41,8.16,7.33,7.12,CC(=O)/C(=C\c1cccc([N+](=O)[O-])c1)C(=O)Nc1ccc(S(N)(=O)=O)cc1,
6.42,9.44,8.54,8.14,CC(=O)/C(=C\c1ccccc1Cl)C(=O)Nc1ccc(S(N)(=O)=O)cc1,2 mmHg
6.65,8.25,7.63,7.28,CC(=O)/C(=C\c1ccc(F)cc1Cl)C(=O)Nc1ccc(S(N)(=O)=O)cc1,
6.84,9.21,8.37,7.39,CC(=O)/C(=C\c1ccc(Cl)cc1)C(=O)Nc1ccc(S(N)(=O)=O)cc1,1.3 mmHg
